# Test results: patent US7935711B2, “HIV inhibiting 2-(4-cyanophenylamino) pyrimidine oxide derivatives” (priority 2005, dated 2011)
# pEC50: −log10 of the molar value.
# Columns and labels:
# [1] = test system: HIV strain A, mutation Y181C in HIV reverse transcriptase; assay: Antiviral spectrum, cellular assay, strain A; assay type: cell-based; conditions: Human immunodeficiency virus 1, read-out: pEC50 A (converted)
# Description: (§1) Because of the increasing emergence of drug resistant HIV strains, the present compounds were tested for their potency against clinically isolated HIV strains harboring several mutations. These mutations are associated with resistance to reverse transcriptase inhibitors and result in viruses that show various degrees of phenotypic cross-resistance to the currently commercially available drugs such as for instance AZT and delavirdine.
# (§2) The antiviral activity of the compound of the present invention is evaluated in the presence of wild type HIV and HIV mutants bearing mutations at the reverse transcriptase gene. The activity of the compounds is evaluated using a cellular assay and the residual activity is expressed in pEC50 values. The columns IIIB and A-G in the table list the pEC50 values against various strains IIIB, A-G.
# Strain A contains mutation Y181C in HIV reverse transcriptase, […]
# [2] = test system: HIV strain C, mutation L100I in HIV reverse transcriptase; assay: Antiviral spectrum, cellular assay, strain C; assay type: cell-based; conditions: Human immunodeficiency virus 1, read-out: pEC50 C (converted)
# Description: as §1, §2
# Strain C contains mutation L100I in HIV reverse transcriptase, […]
# [3] = test system: wild type HIV-LAI strain (IIIB); assay: Antiviral spectrum, cellular assay, strain IIIB; assay type: cell-based; conditions: Human immunodeficiency virus 1
# Description: as §1, §2
# Strain IIIB is wild type HIV-LAI strain;
# [4] = test system: HIV strain D, mutation Y188L and S162K in HIV reverse transcriptase; assay: Antiviral spectrum, cellular assay, strain D; assay type: cell-based; conditions: Human immunodeficiency virus 1, read-out: pEC50 D (converted)
# Description: as §1, §2
# Strain D contains mutation Y188L and S162K in HIV reverse transcriptase, […]
# [5] = test system: HIV strain F, mutations K101E and K103N in HIV reverse transcriptase; assay: Antiviral spectrum, cellular assay, strain F; assay type: cell-based; conditions: Human immunodeficiency virus 1, read-out: pEC50 F (converted)
# Description: as §1, §2
# Strain F contains mutations K101E and K103N in HIV reverse transcriptase.
# [6] = test system: HIV strain E, mutations L100I and K103N in HIV reverse transcriptase; assay: Antiviral spectrum, cellular assay, strain E; assay type: cell-based; conditions: Human immunodeficiency virus 1, read-out: pEC50 E (converted)
# Description: as §1, §2
# Strain E contains mutations L100I and K103N in HIV reverse transcriptase, […]
# [7] = test system: HIV strain B, mutation K103N in HIV reverse transcriptase; assay: Antiviral spectrum, cellular assay, strain B; assay type: cell-based; conditions: Human immunodeficiency virus 1, read-out: pEC50 B (converted)
# Description: as §1, §2
# Strain B contains mutation K103N in HIV reverse transcriptase, […]
smiles,measurement,setting,value
"Cc1cc(C#N)cc(C)c1Oc1nc(Nc2ccc(C#N)cc2)nc(N)c1Br [Compound A, 4-[[6-amino-5-bromo-2-[(4-cyanophenyl)amino]-4-pyrimidinyl]oxy]-3,5-dimethylbenzonitrile, reference compound]",EC50,[1],10 nM
same,EC50,[2],2.88 nM
same,pEC50,[3],8.55
same,EC50,[4],2.45 nM
same,EC50,[5],4.57 nM
same,EC50,[6],8.13 nM
same,EC50,[7],1.78 nM
Cc1cc(C#N)cc(C)c1Oc1nc(Nc2ccc(C#N)cc2)[n+]([O-])c(N)c1Br [Compound 1],EC50,[1],0.631 nM
same,EC50,[2],0.631 nM
same,pEC50,[3],9.24
same,EC50,[4],0.603 nM
same,melting point,,271 °C
same,EC50,[5],1.05 nM
same,EC50,[6],1.07 nM
same,EC50,[7],1.41 nM
